Test results from patent US6376551B1, “Treatment of chronic fatigue syndrome” (Knoll Pharmaceutical Company, priority 1999, dated 2002).

Columns and labels:
[1] = target: [3H]Noradenaline reuptake in rat brain tissue; experiment: in vitro [3H]noradrenaline reuptake inhibition in rat brain tissue; format: biochemical; details: means of >3 separate determinations
[2] = target: [3H]Dopamine reuptake in rat brain tissue; experiment: in vitro [3H]dopamine reuptake inhibition in rat brain tissue; format: biochemical; details: means of >3 separate determinations

| SMILES | Ki [1] | Ki [2] |
| --- | --- | --- |
| CC(NC(C)(C)C)C(=O)c1cccc(Cl)c1 (stereo not shown) [Bupropion] | 2590 nM | 409 nM |
| COc1ccc(C(CN(C)C)C2(O)CCCCC2)cc1 (stereo not shown) [Venlafaxine] | 196 nM | 2590 nM |
